For 62 compounds, EC50 results are on record in BindingDB's records for doi:10.7270/Q2TX3CTT (Broad Institute, 2010).

Counter-ions that a name gives are not always drawn.

The target of this assay is Glycogen synthase kinase-3 beta (Homo sapiens, UniProt P49841). Put plainly: GSK3beta kinase inhibitor potency, dose response, biochemical, luminescence, cell-free homogeneous, retest (AID 434954).
Chain of Glycogen synthase kinase-3 beta (P49841 whole entry): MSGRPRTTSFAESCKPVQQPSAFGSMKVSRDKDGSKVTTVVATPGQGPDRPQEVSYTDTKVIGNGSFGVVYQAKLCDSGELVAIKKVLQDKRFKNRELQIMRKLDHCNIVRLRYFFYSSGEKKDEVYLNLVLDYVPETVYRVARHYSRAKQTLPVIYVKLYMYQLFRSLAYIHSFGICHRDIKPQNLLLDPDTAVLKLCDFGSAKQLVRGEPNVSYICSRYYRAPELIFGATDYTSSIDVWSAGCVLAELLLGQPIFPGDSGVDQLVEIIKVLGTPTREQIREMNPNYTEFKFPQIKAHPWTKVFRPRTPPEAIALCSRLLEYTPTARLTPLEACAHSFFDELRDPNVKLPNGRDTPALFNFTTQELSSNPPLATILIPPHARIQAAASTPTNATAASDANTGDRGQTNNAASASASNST
Consider `Cc1nn(-c2ccccn2)c2c1C(c1ccsc1)C1C(=O)CCCC1=N2` (configuration not stated) [ethanol;3-methyl-1-(2-pyridinyl)-4-(3-thiophenyl)-4,6,7,8-tetrahydro-2H-pyrazolo[3,4-b]quinolin-5-one], for which the EC50 is > 300 µM.
For `O=C(Nc1ccc([N+](=O)[O-])cn1)C1CC1` [SMR000227137] the value was 23.1 µM; for `COc1ccc(-c2nc(-c3ccccc3)[nH]c(=O)c2C#N)cc1` [SMR000168458], > 300 µM; for `COc1ccc(-c2nn(-c3ccccc3)cc2N)cc1` [3-(4-methoxyphenyl)-1-phenylpyrazol-4-amine], > 300 µM.
The figure for `Cn1c(SCc2cccc(Br)c2)nnc1-c1ccncc1` [4-[5-(3-Bromo-benzylsulfanyl)-4-methyl-4H-[1,2,4]triazol-3-yl]-pyridine] is > 300 µM.
In the case of `O=C(CSc1nnc(-c2ccco2)n1Cc1ccco1)N1CCOCC1` [2-(5-Furan-2-yl-4-furan-2-ylmethyl-4H-[1,2,4]triazol-3-ylsulfanyl)-1-morpholin-4-yl-ethanone], the EC50 was > 300 µM.
For `CCOC(=O)CSc1nnc(-c2cccs2)n1-c1ccccc1` the value was > 300 µM.
The figure for `COc1cccc(OC)c1OCCNCC1COc2ccccc2O1` (configuration not stated) [WB-4101 hydrochloride] is > 300 µM.
`COc1cc2c(O)c3c(c(-c4ccc5c(c4)OCO5)c2cc1OC)C(=O)OC3` [9-(1,3-benzodioxol-5-yl)-4-hydroxy-6,7-dimethoxy-3H-benzo[f][2]benzofuran-1-one] returned an EC50 of 4.42 µM.
The figure for `Cc1[nH]n(-c2ccccc2)c(=O)c1/C=N/NC(=O)COc1ccccc1[N+](=O)[O-]` [MLS000592191] is > 300 µM.
As to `Nc1nonc1-n1nnc(C(=O)NN=Cc2ccc(O)cc2)c1CN1CCCCCC1` [1-(4-azanyl-1,2,5-oxadiazol-3-yl)-5-(azepan-1-ylmethyl)-N'-[(4-oxidanylidenecyclohexa-2,5-dien-1-ylidene)methyl]-1,2,3-triazole-4-carbohydrazide], the EC50 worked out at 1.85 µM. That is a single-digit micromolar value.
The figure for `OC(COc1ccc(OCC(O)CN2CCN(Cc3ccccc3)CC2)cc1)CN1CCN(Cc2ccccc2)CC1` (configuration not stated) [SMR000473226] is > 300 µM; for `O=C(Cn1cc2c(n1)CCCCC2)NC1CCN(Cc2ccccc2)CC1` [N-(1-benzylpiperidin-4-yl)-2-(5,6,7,8-tetrahydro-4H-cyclohepta[c]pyrazol-2-yl)acetamide] it is > 300 µM.
The figure for `COc1ccc(S(=O)(=O)CC(=O)c2cc3cccc(C)c3oc2=O)cc1` [SMR000634140] is > 300 µM.
In the case of `NC(=O)c1ccc(N2CCCCCC2)c([N+](=O)[O-])c1` [MLS000688695], the EC50 was > 300 µM.
With `CC(C)(C)Sc1ccc(CN=O)cc1[N+](=O)[O-]` [SMR000335018], the response was half-maximal at 23.6 µM (EC50).
`CCOc1ccc2nc(NC(=O)CSc3nc4cccnc4n3C)sc2c1` had an EC50 of 1.25 µM.
For `Clc1ccc(-c2nnc(-c3ccccc3)c(N3CCSCC3)n2)cc1` the value was > 300 µM; for `COc1ccc(C=C2SC(Nc3ccccc3OC)=NC2=O)cc1` [SMR000517219], > 300 µM.
For `COc1ccc(-c2cc(=O)oc3c(C)c(O)ccc23)cc1` [7-hydroxy-4-(4-methoxyphenyl)-8-methylchromen-2-one] the value was > 300 µM.
For `Cc1noc2c1C(c1ccc(N(C)C)cc1)C1C(=O)CC(C)(C)CC1=N2` (configuration not stated) [MLS000565136] the value was > 300 µM.
As for `COc1ccc2nc(NC(=O)CSc3nnc(N)[nH]3)sc2c1` [MLS001138435], the EC50 is 3.11 µM.
`NS(=O)(=O)c1ccc(Nc2nc(-c3ccc(O)cc3O)cs2)cc1` [4-(4-(2,4-dihydroxyphenyl)thiazol-2-ylamino)benzenesulfonamide] showed an EC50 of 5.73 µM.
For `CC(=O)c1cccc(NC(=O)NN2CCN(C)CC2)c1` [1-(3-ethanoylphenyl)-3-(4-methylpiperazin-1-yl)urea] the value was > 300 µM; for `COC1=CC(=O)CC(C)C12Oc1cc(OC)cc(OC)c1C2=O` (configuration not stated) [3',4,6-trimethoxy-5'-methyl-spiro[1-benzofuran-2,4'-cyclohex-2-ene]-1',3-dione], > 300 µM.
The figure for `CCCCOc1ccc(/C=C/C(=O)OCC(=O)N2CC(=O)Nc3ccccc32)cc1OCC` [[2-oxidanylidene-2-(3-oxidanylidene-2,4-dihydroquinoxalin-1-yl)ethyl] (E)-3-(4-butoxy-3-ethoxy-phenyl)prop-2-enoate] is > 300 µM.
In the case of `O=C(NC1CCC(C(=O)O)CC1)OCc1ccccc1` (configuration not stated) [4-(phenylmethoxycarbonylamino)cyclohexane-1-carboxylic acid], the EC50 is > 300 µM.
For `COCCCNc1nc(N)c([N+](=O)[O-])c(Nc2ccccc2OC)n1` [4-N-(2-methoxyphenyl)-2-N-(3-methoxypropyl)-5-nitropyrimidine-2,4,6-triamine] the value was 0.231 µM; for `O=C(NCCCn1ccnc1)c1ccco1`, > 300 µM.
As to `CCN(CC)C(=O)COc1cc(C)cc2oc(=O)cc(-c3ccccc3)c12` [N,N-diethyl-2-(7-methyl-2-oxo-4-phenylchromen-5-yl)oxyacetamide], the EC50 was > 300 µM.
For `COc1cccc2cc(C(=O)OC(C)C(=O)c3ccc(C)cc3)c(=O)oc12` (configuration not stated) the value was > 300 µM.
For `CC(=O)N1CCc2c(sc(NC(=O)Cc3ccccc3)c2C(N)=O)C1` [MLS000879211] the value was 24.4 µM; for `O=S1(=O)CC2SC(=S)N(c3ccccc3)C2C1` (configuration not stated), > 300 µM; for `Cc1nc(Nc2ccccc2)sc1C(=O)Nc1ccccc1`, > 300 µM.
The figure for `NS(=O)(=O)c1ccc(-c2ccc(/C=C3\NC(=S)NC3=O)o2)cc1` is 46.5 µM; for `COc1ccc(-c2nn(-c3ccccc3)cc2C=NNC(N)=S)cc1OC` [[[3-(3,4-dimethoxyphenyl)-1-phenyl-4-pyrazolyl]methylideneamino]thiourea] it is > 300 µM.
For `Cc1nnc2n(-c3ccccc3)c(=O)c3c4c(sc3n12)CCCC4` [MLS000071277], the concentration giving a half-maximal response (EC50) is > 300 µM.
For `CCOC(=O)CNC(=O)CSc1ccc2nnc(-c3ccc(F)cc3)n2n1` [MLS000684782] the value was > 300 µM.
The figure for `COc1cccc(NC(=O)CN(C)C(=O)c2cc(-c3ccc(F)cc3)nc3ccccc23)c1` is > 300 µM; for `COc1cc(/C=C(\C#N)C(=O)c2c[nH]c3ccccc23)cc(OC)c1O` [(E)-3-(4-hydroxy-3,5-dimethoxyphenyl)-2-(1H-indole-3-carbonyl)prop-2-enenitrile] it is 6.57 µM; for `COc1ccc2nc3c(cc2c1)c(NC(=O)c1cccs1)nn3CC(C)C` [MLS000041975] it is 0.0951 µM.
For `CCOCCCn1c(=NC(C)=O)c(C#N)cc2c(=O)n3cccc(C)c3nc21` [SMR000436200] the value was > 300 µM; for `O=C1NC(=NNc2ccccc2)SC1=Cc1ccccc1` [SMR000174572], > 300 µM; for `O=C1C[C@@H](c2ccc(O)c(O)c2)Oc2cc(O)cc(O)c21` [2-[3,4-bis(oxidanyl)phenyl]-5,7-bis(oxidanyl)-2,3-dihydrochromen-4-one], > 300 µM.
`COc1cccc(-c2nc(SCC(=O)Nc3nc(-c4ccccc4)c(C)s3)[nH]c(=O)c2C#N)c1`: the EC50 was > 300 µM.
For `O=NCc1cn(CCC(=O)O)nc1-c1cccc([N+](=O)[O-])c1` [SMR000371064] the value was 7.38 µM; for `COc1ccc(Nc2nc(NCc3ccco3)nc(N)c2[N+](=O)[O-])cc1` [2-N-(furan-2-ylmethyl)-4-N-(4-methoxyphenyl)-5-nitropyrimidine-2,4,6-triamine], > 300 µM; for `COC(=O)c1c(C)oc2ccc(OC(=O)c3cccs3)cc12` [methyl 2-methyl-5-thiophen-2-ylcarbonyloxy-1-benzofuran-3-carboxylate], > 300 µM.
Take `Cc1ccc2nc3c(cc2c1)c(NC(=O)C(C)(C)C)nn3CC(C)C` [2,2-dimethyl-N-[6-methyl-1-(2-methylpropyl)pyrazolo[3,4-b]quinolin-3-yl]propanamide]: the EC50 is > 300 µM.
Take `c1ccc(CCCCNCC2COc3ccccc3O2)cc1` (configuration not stated) [N-(2,3-dihydro-1,4-benzodioxin-3-ylmethyl)-4-phenylbutan-1-amine]: the EC50 was > 300 µM.
For `c1ccc(Cn2c(-c3ccco3)nc3nc4ccccc4nc32)cc1` [3-benzyl-2-(furan-2-yl)imidazo[4,5-b]quinoxaline] the value was > 300 µM.
The figure for `CCn1c(SCC(=O)Nc2ccc(F)cc2)nnc1C1CC1` [2-[(5-cyclopropyl-4-ethyl-1,2,4-triazol-3-yl)sulfanyl]-N-(4-fluorophenyl)ethanamide] is > 300 µM; for `Cc1[nH]nc2c1C(c1cccs1)C1C(=O)CCCC1=N2` (configuration not stated) [MLS001003570] it is 10.6 µM.
The figure for `O=C(O)c1cccnc1-c1ncccc1C(=O)O` is > 300 µM.
In turn, `O=C(CCSCCc1ccccn1)Nc1ccc(Br)cn1` [N-(5-bromopyridin-2-yl)-3-(2-pyridin-2-ylethylsulfanyl)propanamide] displayed an EC50 of 39.3 µM.
For `CCOC(=O)c1cnc2ccc(Cl)cc2c1N1CCN(C)CC1` [6-chloro-4-(4-methyl-1-piperazinyl)-3-quinolinecarboxylic acid ethyl ester] the value was 14.8 µM; for `Nc1nonc1-n1nnc(C(=O)NN=Cc2c(Cl)cccc2Cl)c1CN1CCOCC1` [1-(4-azanyl-1,2,5-oxadiazol-3-yl)-N-[[2,6-bis(chloranyl)phenyl]methylideneamino]-5-(morpholin-4-ylmethyl)-1,2,3-triazole-4-carboxamide], 55.2 µM; for `COc1c(CC=C(C)C)cc(C2CC(=O)c3c(O)cc(O)cc3O2)c(CC=C(C)C)c1O` (configuration not stated) [5,7-dihydroxy-2-[3-hydroxy-4-methoxy-2,5-bis(3-methylbut-2-enyl)phenyl]-2,3-dihydrochromen-4-one], > 300 µM.
For `c1cncc(-c2nc(NCCCn3ccnc3)c3ccccc3n2)c1` [SMR000384722] the value was 30.7 µM; for `O=C(O)COc1ccc(C(=O)c2ccccc2)cc1` [2-[4-(phenylcarbonyl)phenoxy]ethanoic acid], > 300 µM.
The figure for `N#Cc1c(N)nc(-c2ccccc2)nc1-c1ccccc1` [4-amino-2,6-diphenyl-5-pyrimidinecarbonitrile] is > 300 µM.
`CCn1c(SCC(=O)Nc2ccc(Br)cn2)nnc1C1CC1` [SMR000671057] returned an EC50 of 75 µM. This counts as double-digit micromolar.
